Assay results published in patent publication US20250304576A1 (Cancer Research Technology Limited, priority 2022, published 2025).

What was measured:
Recombinant IKKβ = target: T1, Recombinant IKKβ (Homo sapiens, UniProt O14920); assay: DELFIA IKKβ kinase assay (apparent Ki, Cheng-Prusoff); assay type: biochemical
T1 construct: purchased Millipore, Dundee, UK
T1 sequence (O14920 1-756): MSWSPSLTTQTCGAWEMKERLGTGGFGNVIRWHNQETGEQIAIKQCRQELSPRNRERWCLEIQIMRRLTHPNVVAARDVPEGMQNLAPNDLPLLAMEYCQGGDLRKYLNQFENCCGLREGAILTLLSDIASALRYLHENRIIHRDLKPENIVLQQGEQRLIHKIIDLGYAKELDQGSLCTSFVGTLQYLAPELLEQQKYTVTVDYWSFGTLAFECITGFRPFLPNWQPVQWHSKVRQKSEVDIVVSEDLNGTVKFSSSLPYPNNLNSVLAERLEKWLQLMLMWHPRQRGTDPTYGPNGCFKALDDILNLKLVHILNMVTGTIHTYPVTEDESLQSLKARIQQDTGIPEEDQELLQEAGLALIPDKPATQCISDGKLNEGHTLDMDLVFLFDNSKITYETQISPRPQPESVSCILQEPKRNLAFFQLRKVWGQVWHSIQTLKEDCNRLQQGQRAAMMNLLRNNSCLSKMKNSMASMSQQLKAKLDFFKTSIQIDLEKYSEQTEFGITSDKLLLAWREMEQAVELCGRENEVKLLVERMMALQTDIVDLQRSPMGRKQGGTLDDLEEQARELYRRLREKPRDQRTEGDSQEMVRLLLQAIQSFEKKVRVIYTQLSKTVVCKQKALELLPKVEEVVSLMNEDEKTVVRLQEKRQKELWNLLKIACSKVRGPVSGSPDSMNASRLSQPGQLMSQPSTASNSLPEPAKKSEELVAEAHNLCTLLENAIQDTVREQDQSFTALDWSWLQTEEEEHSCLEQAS
Summary of the method: (§1)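 Recombinant IKKα or IKKβ (37 nM) with 0.375 μM biotinylated IκB-α (Ser32) peptide and 40 μM ATP in 40 mM Tris-HCl pH 7.5, 20 mM MgCl2, 60 min at 30° C. Phospho-substrate captured on streptavidin and detected by anti-phospho-IκB-α plus europium anti-mouse IgG time-resolved fluorescence; apparent Ki via Cheng-Prusoff.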

Recombinant IKKα = target: T2, Recombinant IKKα (Homo sapiens, UniProt O15111); assay: DELFIA IKKα kinase assay (apparent Ki, Cheng-Prusoff); assay type: biochemical
T2 construct: purchased Millipore, Dundee, UK
T2 sequence (O15111 1-745): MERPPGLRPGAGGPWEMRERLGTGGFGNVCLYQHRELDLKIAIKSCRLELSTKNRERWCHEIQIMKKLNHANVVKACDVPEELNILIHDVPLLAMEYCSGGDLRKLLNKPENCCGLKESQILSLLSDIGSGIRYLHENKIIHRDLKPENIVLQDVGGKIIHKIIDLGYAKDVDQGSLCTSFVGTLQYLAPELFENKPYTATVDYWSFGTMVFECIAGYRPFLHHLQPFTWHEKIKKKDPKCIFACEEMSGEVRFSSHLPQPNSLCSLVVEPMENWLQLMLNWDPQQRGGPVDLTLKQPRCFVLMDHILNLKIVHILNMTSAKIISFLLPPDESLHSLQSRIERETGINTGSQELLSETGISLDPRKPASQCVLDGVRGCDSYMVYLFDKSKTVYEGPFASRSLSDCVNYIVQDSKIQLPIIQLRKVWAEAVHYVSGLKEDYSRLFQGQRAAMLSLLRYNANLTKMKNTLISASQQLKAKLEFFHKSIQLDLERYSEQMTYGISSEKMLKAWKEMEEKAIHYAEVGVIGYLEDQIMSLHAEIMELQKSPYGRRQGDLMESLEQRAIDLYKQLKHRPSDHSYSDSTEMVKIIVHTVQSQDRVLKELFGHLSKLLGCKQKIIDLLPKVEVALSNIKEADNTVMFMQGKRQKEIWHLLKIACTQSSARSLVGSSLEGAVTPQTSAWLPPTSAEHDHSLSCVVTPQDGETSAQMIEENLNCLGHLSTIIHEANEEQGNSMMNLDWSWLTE
Summary of the method: as §1

[1] = non-italicised figure: DELFIA assay
[2] = DELFIA assay (first line of an example)

Row | Structure (SMILES) | Ki (Recombinant IKKβ; [1]) | Ki (Recombinant IKKα; [1]) | Ki (Recombinant IKKβ; [2]) | Ki (Recombinant IKKα; [2])
1 | Cc1cc(S(N)(=O)=O)ccc1-c1cc(-c2ccnc(N)c2)cc2c(N)n[nH]c12 [Example 126, 4-(3-Amino-5-(2-aminopyridin-4-yl)-1H-indazol-7-yl)-3-methylbenzenesulfonamide] | 5030 nM | 571 nM | – | –
2 | CCNC(=O)Nc1cc(-c2cc(C#CC(C)(C)C)c3[nH]nc(N)c3c2)ccn1 [Example 187, 1-(4-(3-Amino-7-(3,3-dimethylbut-1-yn-1-yl)-1H-indazol-5-yl)pyridin-2-yl)-3-ethylurea] | 8100 nM | 438 nM | – | –
3 | CC(C)(C)C#Cc1cc(-c2ccnc(NCCC#N)c2)cc2c(N)n[nH]c12 [Example 159, 3-((4-(3-Amino-7-(3,3-dimethylbut-1-yn-1-yl)-1H-indazol-5-yl)pyridin-2-yl)amino)propanenitrile] | 1960 nM | 22 nM | – | –
4 | Nc1n[nH]c2ccc(-c3ccnc(NC(=O)Nc4cccc(Oc5ccccc5)c4)c3)cc12 [Example 56, 1-(4-(3-Amino-1H-indazol-5-yl)pyridin-2-yl)-3-(3-phenoxyphenyl)urea] | 3500 nM | 237 nM | – | –
5 | COCC(=O)Nc1cc(-c2cc(C#CC(C)(C)C)c3[nH]nc(N)c3c2)ccn1 [Example 175, N-(4-(3-Amino-7-(3,3-dimethylbut-1-yn-1-yl)-1H-indazol-5-yl)pyridin-2-yl)-2-methoxyacetamide] | 1110 nM | 24 nM | – | –
6 | Nc1n[nH]c2ccc(-c3ccnc(NC(=O)NCc4ccccc4)c3)cc12 [Example 45, 1-(4-(3-Amino-1H-indazol-5-yl)pyridin-2-yl)-3-benzylurea] | 357 nM | 152 nM | – | –
7 | CN(C)CCNCc1cc2c(-c3ccc4[nH]nc(N)c4c3)ccnc2[nH]1 [Example 255, N^1-((4-(3-Amino-1H-indazol-5-yl)-1H-pyrrolo[2,3-b]pyridin-2-yl)methyl)-N2,N2-dimethylethane-1,2-diamine] | – | – | 1630 nM | 30 nM
8 | CC(C)(C)c1cc2c(-c3ccc4[nH]nc(N)c4c3)ccnc2[nH]1 [Example 9, 2-(Tert-butyl)-4-(3-amino-1H-indazol-5-yl)-7-azaindole] | 109 nM | 19 nM | – | –
9 | Cn1ccc(Nc2cc(-c3cc(C#CC(C)(C)C)c4[nH]nc(N)c4c3)ccn2)n1 [Example 302, 7-(3,3-dimethylbut-1-yn-1-yl)-5-(2-((1-methyl-1H-pyrazol-3-yl)amino)pyridin-4-yl)-1H-indazol-3-amine] | – | – | 148 nM | 62 nM
10 | Nc1n[nH]c2ccc(-c3ccnc(NCCN4CCCCC4)c3)cc12 [Example 31, 5-(2-((2-(Piperidin-1-yl)ethyl)amino)pyridine-4-yl)-1H-indazol-3-amine] | > 10000 nM | 495 nM | – | –
11 | CC(C)(O)CCc1cc(-c2ccnc(NC(=O)C3CC3)c2)cc2c(N)n[nH]c12 [Example 292, N-(4-(3-Amino-7-(3-hydroxy-3-methylbutyl)-1H-indazol-5-yl)pyridin-2-yl)cyclopropanecarboxamide] | – | – | 44 nM | 9 nM
12 | Nc1cc(-c2cc(-c3ccc(O)cc3)c3[nH]nc(N)c3c2)ccn1 [Example 117, 4-(3-Amino-5-(2-aminopyridin-4-yl)-1H-indazol-7-yl)phenol] | 235 nM | 17 nM | – | –
13 | COCCNCc1cc2c(-c3ccc4[nH]nc(N)c4c3)ccnc2[nH]1 [Example 254, 5-(2-(((2-Methoxyethyl)amino)methyl)-1H-pyrrolo[2,3-b]343yridine-4-yl)-1H-indazol-3-amine] | – | – | 389 nM | 18 nM
14 | CCOC(=O)Nc1cc(-c2ccc3[nH]nc(N)c3c2)ccn1 [Example 35, Ethyl (4-(3-amino-1H-indazol-5-yl)pyridin-2-yl)carbamate] | 470 nM | 15 nM | – | –
15 | CC(C)(O)CCC#Cc1c(-c2ccc3[nH]nc(N)c3c2)ccnc1N [Example 86, 6-(2-Amino-4-(3-amino-1H-indazol-5-yl)pyridine-3-yl)-2-methylhex-5-yn-2-ol] | 390 nM | 28 nM | – | –
